Organism: Rattus norvegicus
Experiment: DrugMatrix - Regimen: Daily Repeat
Format: toxicity, organism-based, Sprague-Dawley
Design: regimen Daily Repeat, gender Male, age 6-8 weeks
Settings: in vivo, po, route oral GAVAGE, […]; for ABSOLUTE BASOPHIL / ABSOLUTE EOSINOPHIL / ABSOLUTE LYMPHOCYTE / ABSOLUTE MONOCYTE / ABSOLUTE SEGMENTED NEUTROPHIL / BASOPHIL / EOSINOPHIL / ERYTHROCYTE COUNT / HEMATOCRIT / HEMOGLOBIN / LEUKOCYTE COUNT / LYMPHOCYTE / MEAN CORPUSCULAR HEMOGLOBIN / MEAN CORPUSCULAR HEMOGLOBIN CONCENTRATION / MEAN CORPUSCULAR VOLUME / MONOCYTE / NEUTROPHIL / NUCLEATED RED BLOOD CELLS / PLATELET COUNT: tissue Blood; for ALANINE AMINOTRANSFERASE / ALBUMIN / ALKALINE PHOSPHATASE / ASPARTATE AMINOTRANSFERASE / BLOOD UREA NITROGEN / CARBON DIOXIDE / CHLORIDE / CHOLESTEROL / CREATINE PHOSPHOKINASE / CREATININE / GLUCOSE / LACTATE DEHYDROGENASE / LIPASE / PHOSPHORUS / POTASSIUM / SODIUM / TOTAL BILIRUBIN / TOTAL PROTEIN / URIC ACID: tissue Plasma
[1] = 24 mg/kg, 72 h, dose level Low, time 3 day
[2] = 24 mg/kg, 120 h, dose level Low, time 5 day
[3] = 770 mg/kg, 72 h, dose level High, time 3 day
[4] = 770 mg/kg, 120 h, dose level High, time 5 day

COc1c(N2CCNC(C)C2)c(F)cc2c(=O)c(C(=O)O)cn(C3CC3)c12 (configuration not stated) [GATIFLOXACIN]
ABSOLUTE BASOPHIL [1]: 0 CELLS/uL | ABSOLUTE EOSINOPHIL [1]: 38.67 CELLS/uL | ABSOLUTE LYMPHOCYTE [1]: 12036 CELLS/uL | ABSOLUTE MONOCYTE [1]: 222.67 CELLS/uL | ABSOLUTE SEGMENTED NEUTROPHIL [1]: 769.33 CELLS/uL | BASOPHIL [1]: 0% | EOSINOPHIL [1]: 0.33% | ERYTHROCYTE COUNT [1]: 5.26 x10E6/uL | HEMATOCRIT [1]: 34.07% | HEMOGLOBIN [1]: 13.73 G/DL | LEUKOCYTE COUNT [1]: 13.07 x10E3/uL | LYMPHOCYTE [1]: 92% | MEAN CORPUSCULAR HEMOGLOBIN [1]: 26.17 pg | MEAN CORPUSCULAR HEMOGLOBIN CONCENTRATION [1]: 40.3 G/DL | MEAN CORPUSCULAR VOLUME [1]: 64.87 fL | MONOCYTE [1]: 1.67% | NEUTROPHIL [1]: 6% | NUCLEATED RED BLOOD CELLS [1]: 0 /100WBC | PLATELET COUNT [1]: 1216.33 x10E3/uL | ALANINE AMINOTRANSFERASE [1]: 96.67 u/L | ALBUMIN [1]: 4.1 G/DL | ALKALINE PHOSPHATASE [1]: 435.33 u/L | ASPARTATE AMINOTRANSFERASE [1]: 106.67 u/L | BLOOD UREA NITROGEN [1]: 15 mg/dL | CARBON DIOXIDE [1]: 24.67 mmol/L | CHLORIDE [1]: 100.67 MEQ/L | CHOLESTEROL [1]: 75 mg/dL | CREATINE PHOSPHOKINASE [1]: 818.33 u/L | CREATININE [1]: 0.2 mg/dL | GLUCOSE [1]: 183 mg/dL | LACTATE DEHYDROGENASE [1]: 221.67 u/L | LIPASE [1]: 10.33 u/L | PHOSPHORUS [1]: 13.13 mg/dL | POTASSIUM [1]: 6.33 MEQ/L | SODIUM [1]: 143.27 MEQ/L | TOTAL BILIRUBIN [1]: 0.17 mg/dL | TOTAL PROTEIN [1]: 5.77 G/DL | URIC ACID [1]: 1.7 mg/dL | ABSOLUTE BASOPHIL [2]: 0 CELLS/uL | ABSOLUTE EOSINOPHIL [2]: 0 CELLS/uL | ABSOLUTE LYMPHOCYTE [2]: 16055.67 CELLS/uL | ABSOLUTE MONOCYTE [2]: 361 CELLS/uL | ABSOLUTE SEGMENTED NEUTROPHIL [2]: 1450 CELLS/uL | BASOPHIL [2]: 0% | EOSINOPHIL [2]: 0% | ERYTHROCYTE COUNT [2]: 5.93 x10E6/uL | HEMATOCRIT [2]: 37% | HEMOGLOBIN [2]: 14.63 G/DL | LEUKOCYTE COUNT [2]: 17.87 x10E3/uL | LYMPHOCYTE [2]: 90% | MEAN CORPUSCULAR HEMOGLOBIN [2]: 24.73 pg | MEAN CORPUSCULAR HEMOGLOBIN CONCENTRATION [2]: 39.57 G/DL | MEAN CORPUSCULAR VOLUME [2]: 62.47 fL | MONOCYTE [2]: 2% | NEUTROPHIL [2]: 8% | NUCLEATED RED BLOOD CELLS [2]: 0 /100WBC | PLATELET COUNT [2]: 1096 x10E3/uL | ALANINE AMINOTRANSFERASE [2]: 69 u/L | ALBUMIN [2]: 4.2 G/DL | ALKALINE PHOSPHATASE [2]: 431.33 u/L | ASPARTATE AMINOTRANSFERASE [2]: 90.67 u/L | BLOOD UREA NITROGEN [2]: 13 mg/dL | CARBON DIOXIDE [2]: 27.67 mmol/L | CHLORIDE [2]: 100.67 MEQ/L | CHOLESTEROL [2]: 70.67 mg/dL | CREATINE PHOSPHOKINASE [2]: 342 u/L | CREATININE [2]: 0.2 mg/dL | GLUCOSE [2]: 149.33 mg/dL | LACTATE DEHYDROGENASE [2]: 413 u/L | LIPASE [2]: 10.33 u/L | PHOSPHORUS [2]: 11.8 mg/dL | POTASSIUM [2]: 5.99 MEQ/L | SODIUM [2]: 145.2 MEQ/L | TOTAL BILIRUBIN [2]: 0.2 mg/dL | TOTAL PROTEIN [2]: 5.97 G/DL | URIC ACID [2]: 1.43 mg/dL | ABSOLUTE BASOPHIL [3]: 0 CELLS/uL | ABSOLUTE EOSINOPHIL [3]: 0 CELLS/uL | ABSOLUTE LYMPHOCYTE [3]: 12067.33 CELLS/uL | ABSOLUTE MONOCYTE [3]: 215.33 CELLS/uL | ABSOLUTE SEGMENTED NEUTROPHIL [3]: 450.67 CELLS/uL | BASOPHIL [3]: 0% | EOSINOPHIL [3]: 0% | ERYTHROCYTE COUNT [3]: 6.18 x10E6/uL | HEMATOCRIT [3]: 38.03% | HEMOGLOBIN [3]: 15.1 G/DL | LEUKOCYTE COUNT [3]: 12.73 x10E3/uL | LYMPHOCYTE [3]: 94.67% | MEAN CORPUSCULAR HEMOGLOBIN [3]: 24.5 pg | MEAN CORPUSCULAR HEMOGLOBIN CONCENTRATION [3]: 39.83 G/DL | MEAN CORPUSCULAR VOLUME [3]: 61.5 fL | MONOCYTE [3]: 1.67% | NEUTROPHIL [3]: 3.67% | NUCLEATED RED BLOOD CELLS [3]: 0 /100WBC | PLATELET COUNT [3]: 1233.67 x10E3/uL | ALANINE AMINOTRANSFERASE [3]: 57 u/L | ALBUMIN [3]: 4.07 G/DL | ALKALINE PHOSPHATASE [3]: 327 u/L | ASPARTATE AMINOTRANSFERASE [3]: 64.33 u/L | BLOOD UREA NITROGEN [3]: 11 mg/dL | CARBON DIOXIDE [3]: 24.33 mmol/L | CHLORIDE [3]: 103.67 MEQ/L | CHOLESTEROL [3]: 37 mg/dL | CREATINE PHOSPHOKINASE [3]: 603.67 u/L | CREATININE [3]: 0.29 mg/dL | GLUCOSE [3]: 368.33 mg/dL | LACTATE DEHYDROGENASE [3]: 191.67 u/L | LIPASE [3]: 8.67 u/L | PHOSPHORUS [3]: 12.53 mg/dL | POTASSIUM [3]: 6.44 MEQ/L | SODIUM [3]: 143.43 MEQ/L | TOTAL BILIRUBIN [3]: 0.13 mg/dL | TOTAL PROTEIN [3]: 5.6 G/DL | URIC ACID [3]: 2.13 mg/dL | ABSOLUTE BASOPHIL [4]: 0 CELLS/uL | ABSOLUTE EOSINOPHIL [4]: 57.33 CELLS/uL | ABSOLUTE LYMPHOCYTE [4]: 15898 CELLS/uL | ABSOLUTE MONOCYTE [4]: 55 CELLS/uL | ABSOLUTE SEGMENTED NEUTROPHIL [4]: 1089.67 CELLS/uL | BASOPHIL [4]: 0% | EOSINOPHIL [4]: 0.33% | ERYTHROCYTE COUNT [4]: 6.68 x10E6/uL | HEMATOCRIT [4]: 41.6% | HEMOGLOBIN [4]: 16.5 G/DL | LEUKOCYTE COUNT [4]: 17.1 x10E3/uL | LYMPHOCYTE [4]: 93% | MEAN CORPUSCULAR HEMOGLOBIN [4]: 24.7 pg | MEAN CORPUSCULAR HEMOGLOBIN CONCENTRATION [4]: 39.67 G/DL | MEAN CORPUSCULAR VOLUME [4]: 62.27 fL | MONOCYTE [4]: 0.33% | NEUTROPHIL [4]: 6.33% | NUCLEATED RED BLOOD CELLS [4]: 0 /100WBC | PLATELET COUNT [4]: 1161 x10E3/uL | ALANINE AMINOTRANSFERASE [4]: 71 u/L | ALBUMIN [4]: 4 G/DL | ALKALINE PHOSPHATASE [4]: 300.33 u/L | ASPARTATE AMINOTRANSFERASE [4]: 74.33 u/L | BLOOD UREA NITROGEN [4]: 12.33 mg/dL | CARBON DIOXIDE [4]: 26.67 mmol/L | CHLORIDE [4]: 99.67 MEQ/L | CHOLESTEROL [4]: 30.67 mg/dL | CREATINE PHOSPHOKINASE [4]: 501.33 u/L | CREATININE [4]: 0.29 mg/dL | GLUCOSE [4]: 338.33 mg/dL | LACTATE DEHYDROGENASE [4]: 199 u/L | LIPASE [4]: 8.67 u/L | PHOSPHORUS [4]: 11.53 mg/dL | POTASSIUM [4]: 6.37 MEQ/L | SODIUM [4]: 141.3 MEQ/L | TOTAL BILIRUBIN [4]: 0.2 mg/dL | TOTAL PROTEIN [4]: 5.53 G/DL | URIC ACID [4]: 2.07 mg/dL

From ChEMBL document CHEMBL3885881, “DrugMatrix”
